By NOAEL is commonly meant the highest tested level that showed no adverse finding. The LOAEL is the lowest dose or exposure tested at which an adverse effect was seen.

The subject of one data set is Anas platyrhynchos. To be noted: reproductive; duration: 20 weeks.
The next data set relates to Apis mellifera. To be noted: acute, mortality.
Another data set relates to Bibionidae. To be noted: chronic/long-term; duration: 28 days.
For another data set, the system named is Canidae. To be noted: oral, Dog Other, hematological.
The next data set has as its system Colinus virginianus. Particulars: acute, oral, mortality.
In the next data set the test system is Hypoaspis aculeifer. To be noted: chronic/long-term; duration: 21 days; mortality.
In another data set the test system is Pimephales promelas. Particulars: chronic/long-term; duration: 264 days; other.
Another data set concerns Tagia sp. To be noted: chronic/long-term; duration: 56 days; mortality.
For a further data set, the system named is Poecilus cupreus. The experiment in a line: LR50; higher = less toxic. Particulars: not reported; duration: 19 days; mortality.
The next data set deals with Typhlodromus pyri. The experiment in a line: LR50; higher = less toxic. To be noted: not reported; duration: 7 days; mortality.

Take `CON(C)C(=O)Nc1ccc(Cl)c(Cl)c1` [Linuron]: the no-observed-adverse-effect level (NOAEL) was determined as 13.9 mg/kg-day in the data set with Anas platyrhynchos; 0.9 mg/kg-day in the data set with Canidae (chronic, duration: 1 years); 0.9 mg/kg-day in the data set with Canidae (subchronic, duration: 90 days); 0.8 mg/kg-day in the data set on Rattus norvegicus (reproduction developmental, body weight). For the same compound, the LD50 with Apis mellifera (dermal) was over 97.8 µg/piece; in the data set on Apis mellifera (oral, unspecified) it was over 112 µg/piece; in the data set on Colinus virginianus (diet), 121 mg/kg-day; in the data set on Colinus virginianus it was 314 mg/kg-day; in the data set with Rattus norvegicus (acute, oral, mortality) it was 1000 mg/kg. For the same compound, the NOEC was 9.5 mg/kg with Bibionidae, 3.39 mg/kg in the data set on Hypoaspis aculeifer, 97 µg/L in the data set with Pimephales promelas and 6.78 mg/kg with Tagia sp.. Moreover, the lowest observed adverse effect level (LOAEL) in the data set with Rattus norvegicus (chronic, duration: 2 years, other) was found to be 1.3 mg/kg-day. The LR50 in the data set with Poecilus cupreus is over 927 g/ha; in the data set with Typhlodromus pyri, 42.7 g/ha.
